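These data come from cells grown in 96-well plates and exposed to compound for 48 hours at five concentrations. GI50: concentration for 50% inhibition of growth.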 The source made the active and inactive calls. No stated cut-off is given here; in the data, active = GI50 up to about 1.1 µM and inactive = higher.
Columns and labels:
Experiment in all cases: inhibition of tumour cell growth, NCI panel, 48 h
XF498 = tested on: XF498
DLD-1 = tested on: DLD-1
M19-MEL = tested on: M19-MEL
DMS-114 = tested on: DMS-114
DMS-273 = tested on: DMS-273
SNB-78 = tested on: SNB-78
KM-20L2 = tested on: KM-20L2
HOP-18 = tested on: HOP-18
RXF 631 = tested on: RXF 631

SMILES: Brc1cc(C2OCCCO2)ccc1OCc1ccccc1
- GI50 (XF498): 59.3 µM (inactive)
- GI50 (DLD-1): 37 µM (inactive)
- GI50 (M19-MEL): 66.5 µM (inactive)
- GI50 (DMS-114): 44.3 µM (inactive)
- GI50 (DMS-273): 47.8 µM (inactive)
- GI50 (SNB-78): 34.8 µM (inactive)
- GI50 (KM-20L2): > 10 µM (inactive)

SMILES: O=C1C=CC2(CCCCCCC2=O)CC1 (stereo not drawn)
- GI50 (DLD-1): > 100 µM (inactive)
- GI50 (M19-MEL): > 100 µM (inactive)
- GI50 (DMS-273): > 100 µM (inactive)
- GI50 (SNB-78): > 100 µM (inactive)
- GI50 (KM-20L2): > 100 µM (inactive)
- GI50 (HOP-18): > 100 µM (inactive)

SMILES: O=C(/C=C/c1c(O)ccc2ccccc12)c1ccccc1Cl
- GI50 (XF498): 23.3 µM (inactive)
- GI50 (DLD-1): 31.1 µM (inactive)
- GI50 (M19-MEL): 14 µM (inactive)
- GI50 (DMS-114): 19.9 µM (inactive)
- GI50 (DMS-273): 34.3 µM (inactive)
- GI50 (SNB-78): 44.4 µM (inactive)
- GI50 (KM-20L2): > 100 µM (inactive)

SMILES: CCCCCCCCC(=O)NCCCNCCCNC(=O)CCCCCCCC
- GI50 (XF498): 3.18 µM (inactive)
- GI50 (DLD-1): 2.93 µM (inactive)
- GI50 (M19-MEL): 3.93 µM (inactive)
- GI50 (DMS-114): 3.78 µM (inactive)
- GI50 (DMS-273): 2.56 µM (inactive)
- GI50 (SNB-78): 10.9 µM (inactive)
- GI50 (KM-20L2): 2.53 µM (inactive)
- GI50 (HOP-18): 11.9 µM (inactive)

SMILES: CN(C)c1ccc(/C=C(/C(=O)O)c2csc(-c3nc(/C(=C\c4ccc(N(C)C)cc4)C(=O)O)cs3)n2)cc1
- GI50 (DLD-1): > 100 µM (inactive)
- GI50 (M19-MEL): > 100 µM (inactive)
- GI50 (DMS-114): 29.9 µM (inactive)
- GI50 (SNB-78): > 100 µM (inactive)
- GI50 (KM-20L2): > 100 µM (inactive)

SMILES: N#C/C(=C\c1cc(OCc2ccccc2)c(OCc2ccccc2)cn1)C(N)=O
- GI50 (XF498): > 100 µM (inactive)
- GI50 (DLD-1): > 100 µM (inactive)
- GI50 (M19-MEL): > 100 µM (inactive)
- GI50 (RXF 631): > 100 µM (inactive)
- GI50 (DMS-114): 81.3 µM (inactive)
- GI50 (SNB-78): > 100 µM (inactive)
- GI50 (KM-20L2): > 100 µM (inactive)

SMILES: O=C1C2CC=CCC2C(=O)C12CCc1ccccc12 (stereo not drawn)
- GI50 (XF498): > 100 µM (inactive)
- GI50 (DLD-1): > 100 µM (inactive)
- GI50 (M19-MEL): > 100 µM (inactive)
- GI50 (DMS-273): > 100 µM (inactive)
- GI50 (SNB-78): > 100 µM (inactive)
- GI50 (KM-20L2): > 100 µM (inactive)
- GI50 (HOP-18): 8.15 µM (inactive)

SMILES: COc1ccc(C(Cl)=C(c2ccc(OCCN(C)C)cc2)c2ccc(OCCN(C)C)cc2)cc1
- GI50 (XF498): 1.46 µM (inactive)
- GI50 (DLD-1): 2.51 µM (inactive)
- GI50 (RXF 631): 0.322 µM (active)
- GI50 (DMS-114): 1.6 µM (inactive)
- GI50 (DMS-273): 1.86 µM (inactive)
- GI50 (SNB-78): 1.71 µM (inactive)
- GI50 (KM-20L2): 1.36 µM (inactive)

SMILES: COc1cc(CNc2cnc3ccc(N)cc3n2)cc(OC)c1OC
- GI50 (M19-MEL): 66.8 µM (inactive)
- GI50 (DMS-114): > 100 µM (inactive)
- GI50 (DMS-273): 99.8 µM (inactive)
- GI50 (SNB-78): > 100 µM (inactive)
- GI50 (KM-20L2): > 100 µM (inactive)
- GI50 (HOP-18): > 100 µM (inactive)

SMILES: Cc1nc2nnnn2c2c1C(=O)Nc1ccccc1N2
- GI50 (XF498): > 100 µM (inactive)
- GI50 (DLD-1): > 100 µM (inactive)
- GI50 (M19-MEL): > 100 µM (inactive)
- GI50 (DMS-114): > 100 µM (inactive)
- GI50 (DMS-273): > 100 µM (inactive)
- GI50 (SNB-78): > 100 µM (inactive)
- GI50 (KM-20L2): > 100 µM (inactive)
- GI50 (HOP-18): > 100 µM (inactive)

SMILES: COc1ccc(CNc2cnc3ccc(N)cc3n2)cc1
- GI50 (XF498): > 100 µM (inactive)
- GI50 (DLD-1): > 100 µM (inactive)
- GI50 (M19-MEL): 0.243 µM (active)
- GI50 (DMS-114): 2.09 µM (inactive)
- GI50 (DMS-273): 0.0531 µM (active)
- GI50 (SNB-78): 82.8 µM (inactive)
- GI50 (HOP-18): > 100 µM (inactive)

SMILES: O=C(O)CCNS(=O)(=O)c1ccc(NC(=O)c2ccccc2)cc1
- GI50 (XF498): > 100 µM (inactive)
- GI50 (DLD-1): > 100 µM (inactive)
- GI50 (M19-MEL): > 100 µM (inactive)
- GI50 (DMS-273): > 100 µM (inactive)
- GI50 (KM-20L2): > 100 µM (inactive)
- GI50 (HOP-18): > 100 µM (inactive)

SMILES: NC1(CCCCCCCCCCC(=O)O)CNCCNCCNCCNC1
- GI50 (DLD-1): 40.7 µM (inactive)
- GI50 (M19-MEL): 39.6 µM (inactive)
- GI50 (DMS-114): 28.8 µM (inactive)
- GI50 (KM-20L2): 24.9 µM (inactive)

SMILES: O=C(Cc1nc2ccccc2s1)NC12CC3CC(CC(C3)C1)C2
- GI50 (DLD-1): > 100 µM (inactive)
- GI50 (M19-MEL): > 100 µM (inactive)
- GI50 (RXF 631): > 100 µM (inactive)
- GI50 (DMS-273): > 100 µM (inactive)
- GI50 (SNB-78): > 100 µM (inactive)
- GI50 (KM-20L2): > 100 µM (inactive)

SMILES: CCc1c(C)[nH]c2c1/C(=N/N=C1\CCCc3[nH]c(C)c(CC)c31)CCC2
- GI50 (XF498): 18.2 µM (inactive)
- GI50 (DLD-1): > 100 µM (inactive)
- GI50 (M19-MEL): 20.6 µM (inactive)
- GI50 (RXF 631): 22.5 µM (inactive)
- GI50 (DMS-114): 14.1 µM (inactive)
- GI50 (DMS-273): 17.4 µM (inactive)
- GI50 (SNB-78): 27.4 µM (inactive)
- GI50 (KM-20L2): 27 µM (inactive)

SMILES: Cc1ccc(/N=C2\N=C(N3CC(C)OC(C)C3)c3ccccc32)cc1 (stereo not drawn)
- GI50 (XF498): 24.3 µM (inactive)
- GI50 (DLD-1): 41.3 µM (inactive)
- GI50 (M19-MEL): 36.1 µM (inactive)
- GI50 (RXF 631): 34.9 µM (inactive)
- GI50 (DMS-273): 28.1 µM (inactive)
- GI50 (SNB-78): 31.1 µM (inactive)
- GI50 (KM-20L2): 27.5 µM (inactive)

SMILES: Cc1ccc(C)c(NC(=O)CC/C(=N\NC(=O)c2c(O)ccc3ccccc23)C(C)C(=O)c2ccc(O)cc2)c1 (stereo not drawn)
- GI50 (XF498): 44.3 µM (inactive)
- GI50 (DLD-1): 52.5 µM (inactive)
- GI50 (DMS-273): 26.9 µM (inactive)
- GI50 (SNB-78): 36.2 µM (inactive)
- GI50 (KM-20L2): 15.1 µM (inactive)
- GI50 (HOP-18): 14.3 µM (inactive)

SMILES: CN(C)CCNC(=O)c1cccc2[nH]c(-c3cccnc3)nc12
- GI50 (DLD-1): 22.2 µM (inactive)
- GI50 (M19-MEL): 20.2 µM (inactive)
- GI50 (DMS-273): 20.7 µM (inactive)
- GI50 (SNB-78): 35 µM (inactive)
- GI50 (HOP-18): 25.2 µM (inactive)

SMILES: COc1cc(C[P+](c2ccccc2)(c2ccccc2)c2ccccc2)cc(OC)c1OC
- GI50 (XF498): > 100 µM (inactive)
- GI50 (DLD-1): > 100 µM (inactive)
- GI50 (M19-MEL): > 100 µM (inactive)
- GI50 (DMS-114): > 100 µM (inactive)
- GI50 (DMS-273): > 100 µM (inactive)
- GI50 (SNB-78): > 100 µM (inactive)
- GI50 (KM-20L2): > 100 µM (inactive)

SMILES: CCOC(=O)NC(=O)c1cn(CCN2CCN(C(=O)CNC(=O)CNC(=O)Cn3cc(C(=O)NC(=O)OCC)c(=O)[nH]c3=O)CC2)c(=O)[nH]c1=O
- GI50 (XF498): > 100 µM (inactive)
- GI50 (DLD-1): > 100 µM (inactive)
- GI50 (M19-MEL): > 100 µM (inactive)
- GI50 (DMS-114): > 100 µM (inactive)
- GI50 (DMS-273): > 100 µM (inactive)
- GI50 (SNB-78): > 100 µM (inactive)
- GI50 (KM-20L2): > 100 µM (inactive)
- GI50 (HOP-18): > 100 µM (inactive)

SMILES: O=C(O)/C=C/C(=O)N1C/C(=C\c2ccccc2)C(=O)/C(=C/c2ccccc2)C1
- GI50 (XF498): 7.18 µM (inactive)
- GI50 (DLD-1): 3.94 µM (inactive)
- GI50 (M19-MEL): 3.21 µM (inactive)
- GI50 (DMS-114): 2.99 µM (inactive)
- GI50 (DMS-273): 8.53 µM (inactive)
- GI50 (SNB-78): 5.9 µM (inactive)
- GI50 (KM-20L2): 5.9 µM (inactive)
- GI50 (HOP-18): 11.9 µM (inactive)

SMILES: COC(=O)/C(=N\NC(N)=S)C(C#N)c1ccccc1 (stereo not drawn)
- GI50 (XF498): > 100 µM (inactive)
- GI50 (DLD-1): > 100 µM (inactive)
- GI50 (M19-MEL): > 100 µM (inactive)
- GI50 (DMS-114): > 100 µM (inactive)
- GI50 (SNB-78): > 100 µM (inactive)
- GI50 (KM-20L2): > 100 µM (inactive)

SMILES: Cn1c(=O)c2c(nc3n2CCC(=O)N3)n(C)c1=O
- GI50 (DLD-1): > 100 µM (inactive)
- GI50 (M19-MEL): > 100 µM (inactive)
- GI50 (RXF 631): > 100 µM (inactive)
- GI50 (DMS-114): > 100 µM (inactive)
- GI50 (DMS-273): > 100 µM (inactive)
- GI50 (SNB-78): > 100 µM (inactive)
- GI50 (KM-20L2): > 100 µM (inactive)

SMILES: C=C1C(=O)C23C(CC(OC(C)=O)C1[C@@H]2OC(C)=O)C1(C)C(OC(C)=O)CCC(C)(C)C1C[C@@H]3OC(C)=O (stereo partly drawn)
- GI50 (M19-MEL): 1.75 µM (inactive)
- GI50 (DMS-114): 1.14 µM (inactive)
- GI50 (DMS-273): 1.68 µM (inactive)
- GI50 (SNB-78): 1.53 µM (inactive)
- GI50 (KM-20L2): 1.72 µM (inactive)

SMILES: CCCCCCCCCCCCSC(=S)c1c(C)[nH]n(-c2ccccc2)c1=O
- GI50 (DLD-1): 2.3 µM (inactive)
- GI50 (RXF 631): 13.2 µM (inactive)
- GI50 (DMS-114): 6.84 µM (inactive)
- GI50 (SNB-78): 29.8 µM (inactive)
- GI50 (KM-20L2): 10.2 µM (inactive)
- GI50 (HOP-18): > 50 µM (inactive)

SMILES: CC(N)Cc1ccc(Cl)cc1 (stereo not drawn)
- GI50 (XF498): > 100 µM (inactive)
- GI50 (DLD-1): > 100 µM (inactive)
- GI50 (DMS-273): > 100 µM (inactive)
- GI50 (KM-20L2): 47.2 µM (inactive)
- GI50 (HOP-18): > 100 µM (inactive)

SMILES: CSC[S+]([O-])C[C@H](CO)NC(=O)/C=C/c1c(C)[nH]c(=O)[nH]c1=O (stereo partly drawn)
- GI50 (XF498): 0.214 µM (active)
- GI50 (DLD-1): 1.6 µM (inactive)
- GI50 (M19-MEL): 0.718 µM (active)
- GI50 (RXF 631): 2.58 µM (inactive)
- GI50 (DMS-114): 0.757 µM (active)
- GI50 (DMS-273): 1.43 µM (inactive)
- GI50 (SNB-78): 0.318 µM (active)
- GI50 (KM-20L2): 0.979 µM (active)
- GI50 (HOP-18): 2.85 µM (inactive)

— ChEMBL document CHEMBL1201862, “PubChem BioAssay data set” (2004)
